Laboratory results taken from US20240294571A1, “ANALGESIC AND ANESTHETIC PEPTIDES AND OTHER AGENTS” (The Research Foundation for The State University of New York, priority 2019, published 2024).
Ends that are not written are not given here. Peptide text beside a SMILES is read from it. * marks the point of attachment. Myristoyl = CCCCCCCCCCCCCC(=O)*

Key:
rats = assay: Incisional post-operative pain model, thermal sensitivity; assay type: in vivo, rat; settings: for tau (τ), rate of recovery following incision: exponential decay fit, time in days
Method: Incisional post-operative pain model: To model post-operative pain, an established rat incisional model was used. In short, male and female rats were randomized into either experimental or control groups. On the day of surgery, the animals were anesthetized and placed into a prone position. Once the animal was under a surgical plane of anesthesia, a 200 μL intraplantar injection of 100 μM (31.54 μg total) lipidated peptidomimetic was made into the ipsilateral hind paw. Afterwards, the animals were returned to their home cage and allowed to recover. On the same day, 6 hours after the pre-injection, the animals were anaesthetized, placed into a prone position, and prepared for incision injury. The ipsilateral hind paw was sterilized using successive swabs of chlorohexidine, 70% ethanol, and iodine. Then, using a size 10 scalpel, a 1 cm long incision was made into the plantar surface of the ipsilateral hind paw. Short, yet firm, strokes were used to make incisions through the skin, fascia, and muscle of the hind paw. Following incision, two 50 μL injections, containing 100 μM (7.885 μg per injection) of the lipidated peptidomimetic, were made into each “half” of the incised plantar muscle. Following injection into the muscle, the skin was sutured using 6/0 silk sutures (Ethicon) in a continuous manner to discourage removal of sutures. Upon conclusion of suturing, four 25 μL injections containing 100 μM (3.9425 μg per injection) of the lipidated peptidomimetic, were made into a “quadrant” adjacent to the incision. Finally, the animals were returned to their home cage and allowed to recover for at least 16 hours.
(§1) Thermal Sensitivity Testing: Prior to testing, animals were allowed to habituate to the testing room for 1 hour on each day. Animals were placed on an enclosed elevated frosted glass platform (Ugo Baseline) and allowed 30 minutes for habituation. Once exploratory behavior ceased, an automatic Hargreaves apparatus was maneuvered (Ugo Basile) underneath the hind paw(s) of the animals. Paw withdrawal latency was calculated as the average of four trials per hind limb. Each trial was followed by a 5-minute latency period to allow adequate recovery time between trials.

C57BL/6 mice [1] = assay: CFA-induced inflammatory pain, thermal sensitivity (Hargreaves); assay type: in vivo, mouse; settings: for tau (τ), time constant of thermal sensitivity recovery: time in days
Method: Freund's Complete Adjuvant Chronic Pain Model. C57BL/6 mice were anesthetized (induction: 3%, maintenance: 2%) and placed in a prone position. After the animals were under a surgical plane of anesthesia, denoted by a loss of reaction to both a tail and hind paw pinch, they received a 20 μL injection of Imject™ Freund's Complete Adjuvant (FCA; Thermo Fisher Scientific) and allowed to recover. Behavior testing resumed 24 hours post FCA injection. Each cohort of animals received FCA from previously unopened, vacuum sealed glass ampules to minimize variations between groups.
as §1, with “Hargreaves Assay.” for “Thermal Sensitivity Testing: Prior to testing, animals were allowed to habituate to the testing room for 1 hour on each day.”, “Baseline)” for “Basile)”
Complete Freund's Adjuvant Induced Inflammatory Pain: Male and female C57BL/6 mice were randomized into experimental and control groups. In order to maintain consistency in regards to site of injection, mice were anesthetized and injected with a 32-gauge disposable syringe filled with 20 μL of Imject™ Complete Freund's Adjuvant (Thermo Fisher Scientific) into the plantar surface of the right hind paw and allowed to recover. Behavior testing resumed 24 hours post-CFA injection at which point the animals received a 20 μL intraplantar injection of 100 μM (3.154 μg total) lipidated peptidomimetic immediately after the conclusion of day 1 behavioral testing. In order to minimize experimental error between groups, each group of animals received CFA from previously unopened, vacuum-sealed glass ampules ensuring CFA of identical specific activity.
as §1

C57BL/6 mice [2] = assay: Formalin acute inflammatory pain assay; assay type: in vivo, mouse
Method: (§2) Formalin Assay. Male and female C57BL/6 mice were randomly assigned to either control or experimental groups. Animals were habituated to the formalin testing chamber for 30 minutes or until exploratory behavior ceased the day of experimentation. Following the habituation period, animals were removed from the chamber and given an intraplantar injection of 5% formalin into the ipsilateral hind paw, then immediately placed back into the testing chamber and recorded. Animals were recorded for at least 90 minutes after formalin injection using Active WebCam software. Videos were subsequently scored for number of paw licks, number of paw lifts, and number of full body flinches. All behaviors were scored for a full minute, every five minutes, for 90 minutes of video recording.
as §2, with “Assay:” for “Assay.”, “Animals were habituated to the formalin testing chamber for 30 minutes or until exploratory behavior ceased the day of experimentation.” left out, “All behaviors were scored for a full minute, every five minutes, for 90 minutes of video recording.” left out

rat hind paws = assay: Hematoxylin & eosin staining, immune cells and gait in incisional pain model; assay type: in vivo
Method: (A) Animals were treated as previously stated in the Methods section. However, no behavior was collected, instead, animals were sacrificed via transcardial perfusion, and tissue was collected for staining. (Top) Representative images depicting hematoxylin & eosin staining of rat hind paws in scrambled (n=2) and AP2 inhibitory peptide groups (n=2). Localized immune cells can be observed in the dermis in each condition. (Bottom) 24 hours following incision, there is a rapid increase in the number of immune cells. […] (B) Representative images of incision site in animals that received either the scrambled peptide (top) or AP2 inhibitory peptide (bottom). Black arrows highlight significant granuloma-like structures.

AP2 complex = AP2 complex (Homo sapiens, UniProt O94973+P53680); settings: peptide sequence derived from human CD4 di-leucine motif; read-out: affinity for the AP2 complex; cited from earlier work
Sequence of AP2 complex (O94973 1-621 limits assumed): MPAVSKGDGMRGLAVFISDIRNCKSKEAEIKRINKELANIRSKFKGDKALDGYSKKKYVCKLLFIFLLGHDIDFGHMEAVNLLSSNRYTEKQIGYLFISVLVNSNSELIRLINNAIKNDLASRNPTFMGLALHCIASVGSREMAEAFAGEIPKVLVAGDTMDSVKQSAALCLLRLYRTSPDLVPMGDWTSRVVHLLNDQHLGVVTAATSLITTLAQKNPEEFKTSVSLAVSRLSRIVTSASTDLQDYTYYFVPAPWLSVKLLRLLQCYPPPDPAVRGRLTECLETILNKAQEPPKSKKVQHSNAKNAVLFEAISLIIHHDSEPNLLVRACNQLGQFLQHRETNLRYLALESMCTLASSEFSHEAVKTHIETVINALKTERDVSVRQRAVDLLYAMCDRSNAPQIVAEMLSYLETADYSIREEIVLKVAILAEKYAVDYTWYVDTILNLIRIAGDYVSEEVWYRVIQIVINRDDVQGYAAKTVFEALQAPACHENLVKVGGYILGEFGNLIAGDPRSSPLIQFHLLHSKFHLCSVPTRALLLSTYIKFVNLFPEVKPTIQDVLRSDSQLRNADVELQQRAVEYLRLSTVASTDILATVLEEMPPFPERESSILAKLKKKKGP
Sequence of AP2 complex (P53680 whole entry): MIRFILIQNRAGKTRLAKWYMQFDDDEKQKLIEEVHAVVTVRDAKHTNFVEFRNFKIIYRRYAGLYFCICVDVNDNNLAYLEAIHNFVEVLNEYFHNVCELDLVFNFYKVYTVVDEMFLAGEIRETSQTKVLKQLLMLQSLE
Sequence of AP2 complex (P63010 1-591 partner limits assumed): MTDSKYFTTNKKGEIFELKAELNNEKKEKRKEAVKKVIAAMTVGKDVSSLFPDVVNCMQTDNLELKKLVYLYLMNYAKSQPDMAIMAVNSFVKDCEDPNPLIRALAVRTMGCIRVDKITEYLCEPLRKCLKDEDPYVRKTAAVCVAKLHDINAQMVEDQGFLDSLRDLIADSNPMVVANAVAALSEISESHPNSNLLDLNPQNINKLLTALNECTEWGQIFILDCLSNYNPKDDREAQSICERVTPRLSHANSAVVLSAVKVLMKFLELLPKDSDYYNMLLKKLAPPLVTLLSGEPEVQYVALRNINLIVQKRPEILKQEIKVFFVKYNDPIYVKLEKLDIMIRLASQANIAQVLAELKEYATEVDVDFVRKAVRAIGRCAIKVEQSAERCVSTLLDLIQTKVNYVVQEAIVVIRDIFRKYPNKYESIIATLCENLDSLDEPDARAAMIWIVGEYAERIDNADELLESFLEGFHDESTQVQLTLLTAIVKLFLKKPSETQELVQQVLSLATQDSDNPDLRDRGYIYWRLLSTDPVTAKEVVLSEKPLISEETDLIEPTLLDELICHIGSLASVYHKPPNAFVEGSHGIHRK
Sequence of AP2 complex (Q96CW1 whole entry partner): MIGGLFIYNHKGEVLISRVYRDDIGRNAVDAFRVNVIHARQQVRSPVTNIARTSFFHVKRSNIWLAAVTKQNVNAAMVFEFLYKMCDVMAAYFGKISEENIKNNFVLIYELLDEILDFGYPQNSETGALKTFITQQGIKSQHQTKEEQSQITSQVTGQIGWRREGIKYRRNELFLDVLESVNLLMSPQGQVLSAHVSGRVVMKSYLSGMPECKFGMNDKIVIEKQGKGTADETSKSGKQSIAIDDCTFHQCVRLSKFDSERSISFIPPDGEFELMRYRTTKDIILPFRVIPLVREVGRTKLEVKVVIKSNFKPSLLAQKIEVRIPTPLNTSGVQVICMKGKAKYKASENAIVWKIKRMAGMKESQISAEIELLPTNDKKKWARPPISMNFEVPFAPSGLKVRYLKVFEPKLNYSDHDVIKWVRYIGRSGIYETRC

[3] = peptide 100 μM 6 h before and immediately after plantar incision
[4] = single i.pl. peptide injection (100 μM, 20 μL) 24 h after CFA, n=8

## IERLSEMSLRK (SEQ ID NO: 6) [scrambled peptide]
rats; all rats
  tau (τ), rate of recovery following incision: 9.09
rats; female rats
  tau (τ), rate of recovery following incision: 11.72
rats; male rats
  tau (τ), rate of recovery following incision: 7.46
rats; [3]
  paw withdrawal latency day-1: 5.7 ± 0.4 s
  paw withdrawal latency day-2: 6.4 ± 0.4 s
  paw withdrawal latency day-3: 7.4 ± 0.5 s
  paw withdrawal latency day-4: 7.4 ± 0.5 s
  paw withdrawal latency day-5: 8.3 ± 0.6 s
  paw withdrawal latency day-6: 8.6 ± 0.5 s
  paw withdrawal latency day-7: 11.7 ± 0.6 s
  paw withdrawal latency day-8: 11.4 ± 0.4 s
  paw withdrawal latency day-9: 12.0 ± 0.6 s
C57BL/6 mice [1]; 24 h after CFA, before the single i.pl. peptide injection, n=8
  paw withdrawal latency day-1: 2.4 ± 0.3 s
C57BL/6 mice [1]; all animals, first order exponential decay fit
  tau (τ), time constant of thermal sensitivity recovery: 4.82
C57BL/6 mice [1]; female mice, exponential decay fit
  tau (τ), time constant of thermal sensitivity recovery: 3.23
C57BL/6 mice [1]; male mice, exponential decay fit
  tau (τ), time constant of thermal sensitivity recovery: 6.45
C57BL/6 mice [1]; [4]
  paw withdrawal latency day-2: 3.8 ± 0.5 s
  paw withdrawal latency day-3: 3.8 ± 0.4 s
  paw withdrawal latency day-5: 5.5 ± 0.6 s
  paw withdrawal latency day-9: 7.0 ± 0.8 s
C57BL/6 mice [2]; single i.pl. peptide injection (100 μM, 20 μL) 24 h before 5% formalin, n=6
  cumulative phase 2 paw licking behavior: 184±22

## RASDKQTLLPNQ (SEQ ID NO: 5) (also: phosphorylated, site not given here) [P4, di-leucine based peptide, parent protein CD3, phosphorylated]
C57BL/6 mice [2]; di-leucine peptide analogs, 5% formalin, n=3 per analog
  nocifensive (licking and lifting) behaviors: significant decreases

## CCCCCCCCCCCCCC(=O)N[C@@H](CCCNC(=N)N)C(=O)N[C@@H](CCSC)C(=O)N[C@@H](CO)C(=O)N[C@@H](CCC(=O)O)C(=O)N[C@H](C(=O)N[C@@H](CCCCN)C(=O)N[C@@H](CCCNC(=N)N)C(=O)N[C@@H](CC(C)C)C(=O)N[C@@H](CC(C)C)C(=O)N[C@@H](CO)C(=O)N[C@@H](CCC(=O)O)C(=O)O)[C@@H](C)CC [AP2 inhibitor peptide, RMSEIKRLLSE (SEQ ID NO: 1)] (Myristoyl-RMSEIKRLLSE-OH; N-terminus and C-terminus assumed)
Rat hind paws; 24 hours following incision, n=2
  granuloma-like clustering of immune cells: dense clustering of immune cells
Rat hind paws; after injection of the peptide
  changes in gait: did not potentiate any observable changes
AP2 complex
  Kd: 0.65 µM
